Target: T1, human pancreatic chymotrypsin (Homo sapiens, UniProt P17538)
T1 construct: purchased Sigma, EMDbiosciences
Assay: Specificity assay, chymotrypsin
Assay type: biochemical
Method: The specificities of compounds of the present disclosure were determined against a variety of serine proteases: human neutrophil elastase (HNE), porcine pancreatic elastase (PPE) and human pancreatic chymotrypsin and one cysteine protease: human liver cathepsin B. In all cases a 96-well plate format protocol using a fluorometric Amino-Methyl-Coumarin (AMC) substrate specific for each enzyme was used as described previously (PCT Patent Application No. WO 00/09543) with some modifications to the serine protease assays. All enzymes were purchased from Sigma, EMDbiosciences while the substrates were from Bachem, Sigma and EMDbiosciences.
Compound concentrations varied from 100 to 0.4 μM depending on their potency. The enzyme assays were each initiated by addition of substrate to enzyme-inhibitor pre-incubated for 10 min at room temperature and hydrolysis to 15% conversion as measured on CYTOFLUOR®.
50 mM Tris(hydroxymethyl)aminomethane hydrochloride (Tris-HCl) pH 8, 0.5 M Sodium Sulfate (Na2SO4), 50 mM NaCl, 0.1 mM EDTA, 3% DMSO, 0.01% Tween-20 with 5 μM LLVY-AMC and 1 nM Chymotrypsin.
The percentage of inhibition was calculated using the formula: [1−((UVinh−UVblank)/(UVctl−UVblank))]×100
A non-linear curve fit was applied to the inhibition-concentration data, and the 50% effective concentration (IC50) was calculated by the use of Excel XLfit software.

T1 sequence (P17538 19-263): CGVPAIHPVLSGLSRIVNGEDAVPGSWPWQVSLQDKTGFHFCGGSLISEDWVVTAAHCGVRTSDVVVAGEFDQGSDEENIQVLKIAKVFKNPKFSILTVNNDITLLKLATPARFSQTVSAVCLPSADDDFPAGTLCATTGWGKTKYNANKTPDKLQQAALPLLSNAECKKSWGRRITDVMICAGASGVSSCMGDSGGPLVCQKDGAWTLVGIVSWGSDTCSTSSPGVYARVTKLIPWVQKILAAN

## C=C[C@@H]1C[C@]1(NC(=O)[C@@H]1C[C@@](SCCCC)(c2ccc(-c3ccccc3)cc2)CN1C(=O)[C@@H](NC(=O)OC(C)(C)C)C(C)(C)C)C(=O)NS(=O)(=O)C1CC1 [Example 1, tert-butyl (S)-1-((2S,4R)-4-(biphenyl-4-yl)-4-(butylthio)-2-((1R,2S)-1-(cyclopropylsulfonylcarbamoyl)-2-vinylcyclopropylcarbamoyl)pyrrolidin-1-yl)-3,3-dimethyl-1-oxobutan-2-ylcarbamate]
  IC50: 13.2 µM

Source: patent US7964560B2, “Hepatitis C virus inhibitors” (Bristol-Myers Squibb Company, priority 2008, dated 2011)
